Drawing on BindingDB's records for patent US20240158408 (280 Bio, 2024), this text covers IC50 for three compounds.

Where only a bound is given, the exact number is not on record here.

In assay [1] the target is Phosphatidylinositol 4,5-bisphosphate 3-kinase catalytic subunit alpha isoform [H1047R] (Homo sapiens, UniProt P42336, H1047R).
Assay [2] addresses Phosphatidylinositol 4,5-bisphosphate 3-kinase catalytic subunit alpha isoform (Homo sapiens, UniProt P42336). In words: ADP-Glo Kinase Assay.

Sequence of Phosphatidylinositol 4,5-bisphosphate 3-kinase catalytic subunit alpha isoform [H1047R] (P42336 whole entry H1047R, canonical isoform): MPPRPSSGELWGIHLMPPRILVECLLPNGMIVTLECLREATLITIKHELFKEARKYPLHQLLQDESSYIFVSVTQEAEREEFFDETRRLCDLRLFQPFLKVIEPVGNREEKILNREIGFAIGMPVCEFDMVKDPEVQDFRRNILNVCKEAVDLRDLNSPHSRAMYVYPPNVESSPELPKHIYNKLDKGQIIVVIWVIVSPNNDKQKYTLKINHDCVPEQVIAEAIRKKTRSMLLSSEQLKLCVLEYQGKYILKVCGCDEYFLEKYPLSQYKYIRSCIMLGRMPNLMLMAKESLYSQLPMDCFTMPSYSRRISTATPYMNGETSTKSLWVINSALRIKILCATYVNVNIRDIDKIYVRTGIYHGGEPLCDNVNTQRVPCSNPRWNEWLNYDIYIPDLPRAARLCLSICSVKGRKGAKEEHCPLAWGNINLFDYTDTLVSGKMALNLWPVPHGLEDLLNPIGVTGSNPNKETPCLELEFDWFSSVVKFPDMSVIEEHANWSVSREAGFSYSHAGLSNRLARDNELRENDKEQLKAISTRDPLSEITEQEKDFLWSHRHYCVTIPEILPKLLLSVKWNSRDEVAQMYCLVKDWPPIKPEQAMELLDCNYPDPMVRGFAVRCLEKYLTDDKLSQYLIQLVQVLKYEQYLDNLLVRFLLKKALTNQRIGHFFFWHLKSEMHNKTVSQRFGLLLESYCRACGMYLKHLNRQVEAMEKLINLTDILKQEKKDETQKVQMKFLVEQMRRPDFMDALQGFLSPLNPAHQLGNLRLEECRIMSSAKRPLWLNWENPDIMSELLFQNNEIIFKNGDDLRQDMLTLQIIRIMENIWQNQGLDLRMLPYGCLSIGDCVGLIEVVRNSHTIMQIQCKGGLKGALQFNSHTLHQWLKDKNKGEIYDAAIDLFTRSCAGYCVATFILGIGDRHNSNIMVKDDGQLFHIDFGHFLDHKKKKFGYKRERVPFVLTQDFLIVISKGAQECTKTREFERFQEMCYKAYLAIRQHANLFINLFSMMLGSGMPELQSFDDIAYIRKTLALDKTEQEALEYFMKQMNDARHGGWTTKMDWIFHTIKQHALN
Sequence of Phosphatidylinositol 4,5-bisphosphate 3-kinase catalytic subunit alpha isoform (P42336 whole entry, canonical isoform): as the sequence (P42336 whole entry H1047R, canonical isoform) above, with R1047H counted along it

In the case of `Cn1nc2ccc(NC(=O)c3cc(F)cc(C(F)(F)F)c3)c3c2c1C(=O)NC3c1cc(Cl)ccc1Cl` (stereo unspecified) [US20240158408, Compound YL104], the IC50 was below 0.25 µM in assay [1] and above 10 µM in assay [2].
As for `Cn1nc2c(-c3ccc4ncnn4c3C#N)cc(NC(=O)c3cc(F)cc(C(F)(F)F)c3)c3c2c1C(=O)NC3c1cc(F)ccc1Cl` (stereo unspecified) [US20240158408, Compound YL106], the IC50 in assay [1] is below 0.25 µM; in assay [2] it was above 10 µM.
Regarding `Cn1nc2c(-c3ccc4ncnn4c3C#N)cc(NC(=O)c3cc(F)cc(C(F)(F)F)c3)c3c2c1C(=O)NC3c1cc(Cl)ccc1Cl` (stereo unspecified) [US20240158408, Compound YL107], the IC50 is below 0.25 µM in assay [1] and above 10 µM in assay [2].
